The source of these data is patent US12110289B2, “Heterocyclic compounds, preparation methods and uses thereof” (InventisBio Co., Ltd., priority 2020, dated 2024).

In one data set the test system is pooled human hepatocytes. Nature of the data set: Human hepatocyte clearance study. Particulars: working cell density 0.5 × 10^6 viable cells/mL. It is filed as in vitro ADME. On the procedure:
(§1) The in vitro human hepatocyte clearance of compounds described here was studied using pooled human hepatocytes purchased from BioreclamationIVT (Westbury, NY, Cat #X008001, Lot #TQJ). The assay was conducted according to manufacturer's instruction. Briefly, 10 mM stock solutions of test compounds and positive control (Verapamil) were prepared in 100% DMSO. Thawing media (50 mL) used in the study consists of 31 mL Williams E medium (GIBCO Cat #12551-032), 15 mL isotonic percoll (GE Healthcare Cat #17-0891-09), 500 uL 100× GlutaMax (GIBCO Cat #35050), 750 uL HEPES (GIBCO Cat #15630-080), 2.5 mL FBS (Corning Cat #35-076-CVR), 50 uL human insulin (GIBCO Cat #12585-014) and 5 uL dexamethasone (NICPBP). Incubation media is made of Williams E medium supplemented with 1× GlutaMax. Both thawing medium and incubation medium (serum-free) were placed in a 37° C. water bath for at least 15 minutes prior to use. Compound stock solutions were diluted to 100 μM by combining 198 μL of 50% acetonitrile/50% water and 2 μL of 10 mM stock solution. Verapamil was use as positive control in the assay. Vials of cryopreserved hepatocytes were removed from storage and thawed in a 37° C. water bath with gentle shaking. Contents of the vial were poured into the 50 mL thawing medium conical tube. Vials were centrifuged at 100 g for 10 minutes at room temperature. […] […] […] The boiled hepatocytes were used to prepare negative samples. Aliquots of 198 μL hepatocytes were dispensed into each well of a 96-well non-coated plate. The plate was placed in the incubator on an orbital shaker at 500 rpm for approximately 10 minutes. Aliquots of 2 μL of the 100 μM test compound or positive control were added into respective wells of the non-coated 96-well plate to start the reaction. This assay was performed in duplicate. The plate was incubated in the incubator on an orbital shaker at 500 rpm for the designated time points. Twenty-five microliter of contents were transferred and mixed with 6 volumes (150 μL) of cold acetonitrile with IS (200 nM imipramine, 200 nM labetalol and 200 nM diclofenac) to terminate the reaction at time points of 0, 15, 30, 60, 90 and 120 minutes. Samples were centrifuged at 3,220 g for 25 minutes and aliquots of 150 μL of the supernatants were used for LC-MS/MS analysis. For data analysis, all calculations were carried out using Microsoft Excel. Peak areas were determined from extracted ion chromatograms. The in vitro half-life (t1/2) of parent compound was determined by regression analysis of the percent parent disappearance vs. time curve. […] Scaling factors for in vivo intrinsic clearance prediction using human hepatocytes are listed as: liver weight (g liver/kg body weight): 25.7; hepatocyte concentration (10^6 cells/g liver): 99; scaling factor: 2544.3.
Regarding `C=CC(=O)N1CCN(c2nc(=O)n(-c3c(C4CC4)nc(OCCN(C)C)nc3C3CC3)c3nc(-c4ccccc4F)c(F)cc23)[C@@H](C)C1` [Compound 21], the “Human Hepatocyte Remaining Percentage @ 120 min (%)” value was found to be 90.6%.

`C=CC(=O)N1CCN(c2nc(=O)n(-c3c(C(C)C)nc(OCCN(C)C)nc3C(C)C)c3nc(-c4c(O)cccc4F)c(Cl)cc23)[C@@H](C)C1` [Compound 22]: the “Human Hepatocyte Remaining Percentage @ 120 min (%)” value amounted to 83.3%.

For `C=CC(=O)N1CCN(c2nc(=O)n(-c3c(C(C)C)nc(OCCN(C)C)nc3C(C)C)c3nc(-c4c(N)cccc4F)c(Cl)cc23)[C@@H](C)C1` [Compound 23], the “Human Hepatocyte Remaining Percentage @ 120 min (%)” value is listed as 82.4%.

As for `C=CC(=O)N1C[C@H](C)N(c2nc(=O)n(-c3c(C(C)C)nc(OCCN(C)C)nc3C(C)C)c3nc(-c4ccccc4F)c(Cl)cc23)C[C@H]1C` [Compound 24], the “Human Hepatocyte Remaining Percentage @ 120 min (%)” value is 70.1%.

Regarding `C=CC(=O)N1CCN(c2nc(=O)n(-c3c(C4CC4)nc(C)nc3C3CC3)c3nc(-c4c(O)cccc4F)c(F)cc23)[C@@H](C)C1` [Compound 28], the “Human Hepatocyte Remaining Percentage @ 120 min (%)” value is listed as 61.1%.

Test system in the next data set: not listed separately
In words: Human hepatocyte clearance study. Particulars: human, pooled cryopreserved human hepatocytes (suspension); working cell density 0.5 × 10^6 viable cells/mL; read-out: Human In vitro Clint (μl/min/10^6 cells). The format is in vitro ADME. On the procedure: as §1
In the case of `C=CC(=O)N1CCN(c2nc(=O)n(-c3c(C4CC4)nc(OCCN(C)C)nc3C3CC3)c3nc(-c4ccccc4F)c(F)cc23)[C@@H](C)C1` [Compound 21], the hepatocyte CLint at 1 µM came to 1.8 µL/min/1e6 cells.

With `C=CC(=O)N1CCN(c2nc(=O)n(-c3c(C(C)C)nc(OCCN(C)C)nc3C(C)C)c3nc(-c4c(O)cccc4F)c(Cl)cc23)[C@@H](C)C1` [Compound 22], the hepatocyte CLint at 1 µM was determined as 2.9 µL/min/1e6 cells.

Turning to `C=CC(=O)N1CCN(c2nc(=O)n(-c3c(C(C)C)nc(OCCN(C)C)nc3C(C)C)c3nc(-c4c(N)cccc4F)c(Cl)cc23)[C@@H](C)C1` [Compound 23], the hepatocyte CLint at 1 µM is 2.5 µL/min/1e6 cells.

With `C=CC(=O)N1C[C@H](C)N(c2nc(=O)n(-c3c(C(C)C)nc(OCCN(C)C)nc3C(C)C)c3nc(-c4ccccc4F)c(Cl)cc23)C[C@H]1C` [Compound 24], the hepatocyte CLint at 1 µM came out at 5.9 µL/min/1e6 cells.

On to `C=CC(=O)N1CCN(c2nc(=O)n(-c3c(C4CC4)nc(C)nc3C3CC3)c3nc(-c4c(O)cccc4F)c(F)cc23)[C@@H](C)C1` [Compound 28], for which the hepatocyte CLint at 1 µM turned out to be 8.4 µL/min/1e6 cells.

The data set is the same for the next values; noted with them: human, pooled cryopreserved human hepatocytes (suspension); working cell density 0.5 × 10^6 viable cells/mL; read-out: Human In vitro T1/2.
With `C=CC(=O)N1CCN(c2nc(=O)n(-c3c(C4CC4)nc(OCCN(C)C)nc3C3CC3)c3nc(-c4ccccc4F)c(F)cc23)[C@@H](C)C1` [Compound 21], the half-life at 1 µM came to 13.1 h.

On to `C=CC(=O)N1CCN(c2nc(=O)n(-c3c(C(C)C)nc(OCCN(C)C)nc3C(C)C)c3nc(-c4c(O)cccc4F)c(Cl)cc23)[C@@H](C)C1` [Compound 22], for which the half-life at 1 µM is 7.87 h.

Consider `C=CC(=O)N1CCN(c2nc(=O)n(-c3c(C(C)C)nc(OCCN(C)C)nc3C(C)C)c3nc(-c4c(N)cccc4F)c(Cl)cc23)[C@@H](C)C1` [Compound 23], for which the half-life at 1 µM was found to be 9.23 h.

Take `C=CC(=O)N1C[C@H](C)N(c2nc(=O)n(-c3c(C(C)C)nc(OCCN(C)C)nc3C(C)C)c3nc(-c4ccccc4F)c(Cl)cc23)C[C@H]1C` [Compound 24]: the half-life at 1 µM came out at 3.9 h.

Turning to `C=CC(=O)N1CCN(c2nc(=O)n(-c3c(C4CC4)nc(C)nc3C3CC3)c3nc(-c4c(O)cccc4F)c(F)cc23)[C@@H](C)C1` [Compound 28], the half-life at 1 µM was found to be 2.73 h.

Still in this data set, the particulars now being: human, pooled cryopreserved human hepatocytes (suspension); working cell density 0.5 × 10^6 viable cells/mL; scaling factor 2544.3; read-out: Human Scale-up Clint.
Consider `C=CC(=O)N1CCN(c2nc(=O)n(-c3c(C4CC4)nc(OCCN(C)C)nc3C3CC3)c3nc(-c4ccccc4F)c(F)cc23)[C@@H](C)C1` [Compound 21], for which the CLint scaled at 1 µM stood at 4.5 mL/min/kg.

For the compound `C=CC(=O)N1CCN(c2nc(=O)n(-c3c(C(C)C)nc(OCCN(C)C)nc3C(C)C)c3nc(-c4c(O)cccc4F)c(Cl)cc23)[C@@H](C)C1` [Compound 22], the CLint scaled at 1 µM worked out at 7.5 mL/min/kg.

As for `C=CC(=O)N1CCN(c2nc(=O)n(-c3c(C(C)C)nc(OCCN(C)C)nc3C(C)C)c3nc(-c4c(N)cccc4F)c(Cl)cc23)[C@@H](C)C1` [Compound 23], the CLint scaled at 1 µM worked out at 6.4 mL/min/kg.

For `C=CC(=O)N1C[C@H](C)N(c2nc(=O)n(-c3c(C(C)C)nc(OCCN(C)C)nc3C(C)C)c3nc(-c4ccccc4F)c(Cl)cc23)C[C@H]1C` [Compound 24], the CLint scaled at 1 µM worked out at 15.1 mL/min/kg.

As for `C=CC(=O)N1CCN(c2nc(=O)n(-c3c(C4CC4)nc(C)nc3C3CC3)c3nc(-c4c(O)cccc4F)c(F)cc23)[C@@H](C)C1` [Compound 28], the CLint scaled at 1 µM was 21.5 mL/min/kg.

The test system of another data set is Lung cancer cell line NCI-H358 containing KRas G12C mutation. In words: Assay for cell proliferation (Cell-titer Glo, 5 days). It is filed as cell-based, human. Particulars: Homo sapiens, NCI-H358, 120 h, NCI-H358, 5 days, Cell-titer Glo; read-out: IC50 (nM), Inhibition of NCI-H358 Cell Proliferation. A digest of the protocol:
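NCI-H358 (KRas G12C) cells, 2000 per well, attached overnight at 37 °C, 5% CO2, then treated with compound for 5 days at 0.5% DMSO final. Proliferation measured by CellTiter-Glo luminescence after 10 min at RT.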
As to `C=CC(=O)N1CCN(c2nc(=O)n(-c3c(C4CC4)nc(OCCN(C)C)nc3C3CC3)c3nc(-c4ccccc4F)c(F)cc23)[C@@H](C)C1` [Compound 21], the IC50 came to 29.9 nM.

`C=CC(=O)N1CCN(c2nc(=O)n(-c3c(C(C)C)nc(OCCN(C)C)nc3C(C)C)c3nc(-c4c(O)cccc4F)c(Cl)cc23)[C@@H](C)C1` [Compound 22]: the IC50 came to 7.6 nM.

As to `C=CC(=O)N1CCN(c2nc(=O)n(-c3c(C(C)C)nc(OCCN(C)C)nc3C(C)C)c3nc(-c4c(N)cccc4F)c(Cl)cc23)[C@@H](C)C1` [Compound 23], the IC50 was 6.9 nM.

With `C=CC(=O)N1C[C@H](C)N(c2nc(=O)n(-c3c(C(C)C)nc(OCCN(C)C)nc3C(C)C)c3nc(-c4ccccc4F)c(Cl)cc23)C[C@H]1C` [Compound 24], the IC50 worked out at 9.1 nM.

As to `C=CC(=O)N1CCN(c2nc(=O)n(-c3c(C4CC4)nc(C)nc3C3CC3)c3nc(-c4c(O)cccc4F)c(F)cc23)[C@@H](C)C1` [Compound 28], the IC50 came out at 23.3 nM.
